Test results: publication PMC7867784 (Translational Lung Cancer Research, 2021)

Assay: ALL-RET pharmacokinetic analysis
Type: in vivo, human
Conditions: for free fraction of Cmin in a steady state: 450 mg BID; for AUC / Cmax / concentration at 10 h / Tmax: human, plasma, oral; for concentration at 10 h: Cmin (plasma concentration at 10 h after administration), mean ± SD [min–max]; for Tmax: median [min–max]
[1] = 450 mg, Day 15, 450 mg BID, N=5
[2] = 600 mg, Day 15, 600 mg BID, N=3

CCc1cc2c(cc1N1CCC(N3CCOCC3)CC1)C(C)(C)c1[nH]c3cc(C#N)ccc3c1C2=O [alectinib]
free fraction of Cmin in a steady state: < 4.8 ng/mL | free fraction of Cmin in a steady state (equivalent of ng/mL value): < 10 nM | AUC (450 mg): 4820 ng·h/mL | Cmax (450 mg): 576 ± 215 ng/mL | concentration at 10 h (450 mg, Day 1, 450 mg, N=6): 118 ng/mL | concentration at 10 h [1]: 483 ng/mL | Tmax (450 mg, Day 1, 450 mg, N=6): 5.91 h | Tmax [1]: 7.97 h | AUC (600 mg): 8600 ng·h/mL | Cmax (600 mg): 1050 ng/mL | concentration at 10 h (600 mg, Day 1, 600 mg, N=6): 278 ng/mL | concentration at 10 h [2]: 911 ng/mL | Tmax (600 mg, Day 1, 600 mg, N=6): 7.01 h | Tmax [2]: 5.77 h
